Test results as given in the CheMixHub viscosity set.

Assay: xn = mol fraction of the nth substance listed

CCOCCO + O=C1CCCO1
303.15 K, 101.33 kPa
Settings | viscosity [mPa·s]
x1 = 0.0345 | 1.722
x1 = 0.0509 | 1.708
x1 = 0.0767 | 1.687
x1 = 0.1125 | 1.658
x1 = 0.2033 | 1.603
x1 = 0.3137 | 1.561
x1 = 0.4404 | 1.544
x1 = 0.5421 | 1.538
x1 = 0.6504 | 1.535
x1 = 0.8807 | 1.541
x1 = 0.9372 | 1.538
x1 = 0.9693 | 1.553

CC12CCC(CC1=O)C2(C)C (configuration not stated) + CCCCCCCCCC(=O)O
101.33 kPa, x2 = 0.7
Settings | viscosity [mPa·s]
298.15 K | 10.76
303.15 K | 9.184
308.05 K | 7.889
313.05 K | 6.866
318.15 K | 6.143
323.05 K | 5.9

Oc1ccc(Cl)cc1 + O=Cc1ccccc1
308.15 K, 101.33 kPa
Settings | viscosity [mPa·s]
x2 = 0.11 | 5.75
x2 = 0.304 | 3.8
x2 = 0.485 | 3.01
x2 = 0.56 | 2.495
x2 = 0.62 | 2.2
x2 = 0.728 | 1.79
x2 = 0.907 | 1.388

CNC(C)=O + CCO
303.15 K, 101 kPa
Settings | viscosity [mPa·s]
x1 = 0.1049 | 1.108
x1 = 0.2021 | 1.237
x1 = 0.3699 | 1.52
x1 = 0.4024 | 1.584
x1 = 0.5109 | 1.833
x1 = 0.6023 | 2.084
x1 = 0.6979 | 2.402
x1 = 0.7994 | 2.792
x1 = 0.895 | 3.236

CC(C)CCO + NC=O
298.1 K, 101 kPa
Settings | viscosity [mPa·s]
x2 = 0.0932 | 3.579
x2 = 0.1809 | 3.571
x2 = 0.2579 | 3.687
x2 = 0.3292 | 3.799
x2 = 0.4564 | 3.993
x2 = 0.5661 | 4.174
x2 = 0.6617 | 4.273
x2 = 0.7463 | 4.252
x2 = 0.8205 | 4.071
x2 = 0.8871 | 3.8
x2 = 0.9462 | 3.567

Oc1ccc(Cl)cc1 + CCCCN(CCCC)CCCC
298.16 K, 101 kPa
Settings | viscosity [mPa·s]
x1 = 0.5057 | 14.04
x1 = 0.5498 | 23.8
x1 = 0.6004 | 46.15
x1 = 0.6534 | 94.2
x1 = 0.7034 | 222.8
x1 = 0.714 | 261.7
x1 = 0.7471 | 389.7
x1 = 0.7798 | 438.6
x1 = 0.8047 | 424.7
x1 = 0.8194 | 339.1
x1 = 0.8508 | 228.2
x1 = 0.8615 | 173.1
x1 = 0.88 | 141.3
x1 = 0.9041 | 99.6
x1 = 0.915 | 73.06
x1 = 0.9457 | 46.28
x1 = 0.9798 | 26.23
x2 = 0.002811 | 19.56

CCOCCO + CCCCCCCCC
viscosity [mPa·s], 101.33 kPa
Settings | x1 = 0.098 | x1 = 0.2031 | x1 = 0.3023 | x1 = 0.4074 | x1 = 0.505 | x1 = 0.601 | x1 = 0.7022 | x1 = 0.8034 | x1 = 0.9003
298.15 K | 0.662 | 0.696 | 0.746 | 0.822 | 0.9 | 1.024 | 1.107 | 1.263 | 1.469
303.15 K | 0.62 | 0.646 | 0.69 | 0.753 | 0.821 | 0.929 | 1.005 | 1.137 | 1.316
308.15 K | 0.577 | 0.601 | 0.64 | 0.697 | 0.757 | 0.853 | 0.916 | 1.034 | 1.191
313.15 K | 0.537 | 0.558 | 0.596 | 0.642 | 0.698 | 0.778 | 0.837 | 0.939 | 1.075

CC(C)CCO + CC(C)O
298.15 K, 101 kPa
Settings | viscosity [mPa·s]
x1 = 0.0665 | 2.158
x1 = 0.095 | 2.195
x1 = 0.1475 | 2.277
x1 = 0.1504 | 2.279
x1 = 0.2352 | 2.411
x1 = 0.2364 | 2.41
x1 = 0.3228 | 2.562
x1 = 0.3304 | 2.572
x1 = 0.4092 | 2.707
x1 = 0.4193 | 2.736
x1 = 0.5069 | 2.896
x1 = 0.5352 | 2.948
x1 = 0.6126 | 3.093
x1 = 0.6388 | 3.125
x1 = 0.7326 | 3.271
x1 = 0.7853 | 3.365
x1 = 0.8525 | 3.477
x1 = 0.9466 | 3.651
